Measurements published in patent US20070213291A1, “Therapeutically useful synthetic oligonucleotides” (priority 1999, published 2007).

Key:
[1] = system: Jurkat human leukemia T cells; test: Cell cycle stage in Jurkat cells (propidium iodide flow cytometry); type: cell-based; conditions: Jurkat, 24 h, 100 μg/ml
Summary of the method: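 Phase distribution (G0/G1, early, mid and late S, G2/M) came from flow cytometry with doublet discrimination on propidium iodide-stained nuclei. Jurkat cells were given 24 h exposure to 2–45-base oligonucleotides, or at 1×10^6 cells/ml to single 6-base GT or AC strands heated 10 min at 65 °C or 1:1 hybridized duplex.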

[2] = system: THP-1 human acute monocytic leukemia cells; test: Cytokine production by THP-1 cells (ELISA); type: cell-based; conditions: THP-1, 1×10^6 cells, 100 μg/ml, 48 h
Summary of the method: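 Read-out is fold increase in supernatant cytokine versus control cells, measured by ELISA (IL-12 ELISA counts p70 complex plus free p40). Unless noted, sequences were tested at 100 μg/ml on 1×10^6 cells, incubated 48 h, 37° C, 5% CO2.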

[3] = system: LNCaP human prostate cancer cells; test: LNCaP human prostate cancer xenografts in male nude nu/nu mice; type: in vivo; conditions: after 4 weeks of treatment, compared with other groups (group 1 saline, group 5 BCG A-3)
Experimental: LNCaP human prostate cancer cells are implanted subcutaneously, as xenografts, in male nude nu/nu mice. The mice are divided into 5 groups of 10 mice. On day 0, group 1 mice receive saline, group 2 mice receive 3 base SEQ ID NO:8, group 3 mice receive 6 base GT SEQ ID NO:25, group 4 mice receive 6 base AG SEQ ID NO:45 and group 5 mice receive 45 base BCG A-3 SEQ ID NO:69. After 4 weeks of treatment, the mice are sacrificed and timor mass is determined.

[4] = system: Jurkat human leukemia T cells; test: Inhibition of Jurkat human leukemia T cell proliferation (MTT reduction); type: cell-based; conditions: 100 μg/ml sequence, 48 h, 2.5×10^5 cells/ml
Summary of the method: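 Read-out is MTT absorbance at 570 nm after 48 h. Sequences of 2 to 45 bases (A, C, G, T) tested at 100 μg/ml against untreated control, with 2.5×10^5 Jurkat cells/ml held at 37° C under 5% CO2.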

[5] = Melting temperature (Tm) of sequences; type: physicochemical

Row | Sequence | % of cells in phase: G0/G1 [1] | % of cells in phase: G2/M [1] | % of cells in phase: SE [1] | % of cells in phase: SL [1] | % of cells in phase: SM [1] | Arrest (cell cycle) [1] | ↑ IL-6 (fold increase treated vs control cells) [2] | ↑ IL-12 (fold increase treated vs control cells) ([2]; p70 complex and free p40) | tumor mass [3] | % INHIBITION of Jurkat human leukemia T cell proliferation [4] | melting temperature (Tm) [5]
1 | TCCATCGCCAAGGAGATCGAGCTGGAGGATCCGTACGAGAAGATC (unmodified DNA) [BCG A-3, reference compound] | 32.3% | 21.4% | 20.2% | 12.0% | 14.1% | None | 2.5x | 1.7x | less tumor mass than group 1 mice | 24% | –
2 | GGGTGGGGGTGGGGGTGG [SEQ ID NO:69] | – | – | – | – | – | – | – | – | – | 5% | 76.3 °C
3 | GGGTGGGGGTGGGGGTGGGGGTGG (unmodified DNA) [SEQ ID NO:70] | – | – | – | – | – | – | – | – | – | 13% | 86.3 °C
